The values below come from ChEMBL document CHEMBL1134178, “Cytotoxic Michael-type amine adducts of alpha-methylene lactones alantolactone and isoalantolactone” (Bioorg Med Chem Lett, 2001).

Test [1] concerns K562. Nature of the test: In vitro inhibitory activity against K562 human leukemia cell line. Type of test: functional, cell-based.
The subject of the next test is A549. Briefly: Inhibitory activity against A549 lung cancer cell line. The format is functional. The note with it: Homo sapiens, read-out: ID50 (the source's name).
Test [2] has as its system K562. Nature of the test: Evaluated for the effect on cell cycle distribution of K562 cells following treatment of 10 x IC50 for 16 hours and percentage of cells in G1 phase was reported. The format is functional, Homo sapiens.
The subject of another test is MCF7. Briefly: Inhibitory activity against MCF-7 breast cancer cell line. The format is functional. The settings on record: Homo sapiens, read-out: ID50 (the source's name).
Test [3] concerns K562. Nature of the test: Effect on cell cycle distribution of K562 cells following treatment of 10 x IC50 for 16 hours and percentage of apoptotic cells (cells with DNA content less than cells in G1 phase) was reported. Type of test: functional, Homo sapiens.
In test [4] the test system is K562. Briefly: Effect on cell cycle distribution of K562 cells following treatment of 10 x IC50 for 16 hours and percentage of cells in S phase was reported. Type of test: functional, Homo sapiens.
Test [5] concerns K562. Briefly: Inhibitory activity against K562 human leukemia cell line. The format is functional. The settings on record: read-out: ID50 (the source's name).
A further test concerns P388. Briefly: Inhibitory activity against P388 mouse leukemia cell line. Type of test: functional. The settings on record: read-out: ID50 (the source's name).
Test [6] is described as follows: Inhibitory activity against FF1 normal skin cells. The note with it: Homo sapiens, read-out: ID50 (the source's name). The format is functional.
In another test the test system is COLO. Briefly: Inhibitory activity against COLO skin melanoma cell line. Type of test: functional. The note with it: Homo sapiens, read-out: ID50 (the source's name).
The next test has as its system BT-20. Nature of the test: Inhibitory activity against BT20 breast cancer cell line. Type of test: functional. The note with it: Homo sapiens, read-out: ID50 (the source's name).
Test [7] deals with K562. Nature of the test: Effect on cell cycle distribution of K562 cells following treatment of 10 x IC50 for 16 hours and percentage of cells in G2/M phase was reported. Type of test: functional, Homo sapiens.
The subject of another test is NCI-H520. Nature of the test: Inhibitory activity against H520 lung cancer cell line. Type of test: functional. The settings on record: Homo sapiens, read-out: ID50 (the source's name).
The test system of another test is NCI-H460. Briefly: Inhibitory activity against H460 lung cancer cell line. Type of test: functional. The settings on record: Homo sapiens, read-out: ID50 (the source's name).
Test [8] relates to K562. Briefly: Effect on cell cycle distribution of K562 cells following treatment of 10 x IC50 for 16 hours and c.v. value was reported. Type of test: functional, Homo sapiens.
A further test concerns WiDr. Nature of the test: Inhibitory activity against WiDR colon adenocarcinoma cell line. The format is functional. The settings on record: Homo sapiens, read-out: ID50 (the source's name).

`C=C1CCC[C@]2(C)C[C@H]3OC(=O)[C@@H](CN(C)CCO)[C@H]3C[C@@H]12`: the IC50 in the test with K562 [1] was 4 µM.

Compound `C=C1CCC[C@]2(C)C[C@H]3OC(=O)[C@@H](CN4CCCCC4)[C@H]3C[C@@H]12` registered an IC50 in the test with K562 [1] of 5 µM.

With `C=C1CCC[C@]2(C)C[C@H]3OC(=O)[C@@H](CN4CCCC4)[C@H]3C[C@@H]12`, the IC50 with K562 [1] was 5 µM.

On to `C=C1CCC[C@]2(C)C[C@H]3OC(=O)[C@@H](CN4CCOCC4)[C@H]3C[C@@H]12`, for which the IC50 in the test on K562 [1] came to 5 µM.

On to `C=C1CCC[C@]2(C)C[C@H]3OC(=O)[C@@H](CN(CC)CC)[C@H]3C[C@@H]12`, for which the IC50 with A549 came to 800 nM; in the test on MCF7 it was 800 nM; with K562 [5], 2000 nM; with K562 [1], 2 µM; in the test on P388, 300 nM; in test [6], 1000 nM. Moreover, the IC50 came to 3500 nM in the test on COLO; 1200 nM in the test with BT-20; 900 nM in the test on NCI-H520; 600 nM in the test on NCI-H460; 1500 nM in the test with WiDr. Moreover, in the test with K562 [2], the G1 stood at 39%. In addition, the Activity with K562 [3] was determined as 4.4%. In the test with K562 [4], this compound showed an S of 52%. In addition, the G2/M in the test on K562 [7] was 10%. The same compound showed a c.v in the test with K562 [8] of 4.3.

For `C=C1CCC[C@]2(C)C[C@H]3OC(=O)[C@@H](CN(C)C)[C@H]3C[C@@H]12`, in the test with K562 [1], the IC50 was determined as 3 µM.

On to `C=C1CCC[C@]2(C)C[C@H]3OC(=O)[C@@H](CN(CCC)CCC)[C@H]3C[C@@H]12`, for which the IC50 in the test with K562 [1] turned out to be 5 µM.

Turning to `C=C1CCC[C@]2(C)C[C@H]3OC(=O)[C@@H](CNC)[C@H]3C[C@@H]12`, in the test on K562 [1], the IC50 is 24 µM.

`C=C1CCC[C@]2(C)C[C@H]3OC(=O)[C@@H](CN(C)C(C)C(O)c4ccccc4)[C@H]3C[C@@H]12` (stereo partly specified) registered an IC50 in the test with K562 [1] of 3 µM.

Take `C=C1CCC[C@]2(C)C[C@H]3OC(=O)[C@@H](CNCCCN(C)C)[C@H]3C[C@@H]12`: the IC50 in the test on K562 [1] stood at 6 µM.

`C[C@H]1CCC[C@]2(C)C[C@H]3OC(=O)[C@@H](CN(C)C)[C@H]3C=C12`: in the test on K562 [1], the IC50 was determined as 2 µM.

Compound `CCN(CC)C[C@@H]1C(=O)O[C@@H]2C[C@@]3(C)CCC[C@H](C)C3=C[C@H]12` came in with a G1 in the test with K562 [2] of 38%. For the same compound, the Activity in the test on K562 [3] was 7.3%. Moreover, the S with K562 [4] worked out at 52%. Also, in the test with K562 [1], the IC50 was determined as 0.7 µM. The same compound showed a G2/M in the test with K562 [7] of 10%. In the test on K562 [8], this compound had a c.v of 7.

Regarding `C=C1CCC[C@]2(C)C[C@H]3OC(=O)[C@@H](CNCc4ccccc4)[C@H]3C[C@@H]12`, the IC50 with K562 [1] was determined as 15 µM.

`C[C@H]1CCC[C@]2(C)C[C@H]3OC(=O)[C@@H](CN4CCCCC4)[C@H]3C=C12` returned an IC50 in the test on K562 [1] of 2 µM.

Turning to `C=C1C(=O)O[C@@H]2C[C@@]3(C)CCC[C@H](C)C3=C[C@H]12` [HELENINE], the “growth inhibition (GI)” value in the test on K562 [2] came out at 30%. The Activity with K562 [3] was 9.9%. Further, the S in the test with K562 [4] is 53%. In addition, the IC50 with K562 [1] was found to be 0.7 µM. This compound also yielded a G2/M with K562 [7] of 17%. The compound further came in with a c.v in the test on K562 [8] of 3.4.

As for `C=C1C(=O)O[C@@H]2C[C@@]3(C)CCCC(=C)[C@@H]3C[C@H]12` [ISOALANTOLACTONE], the IC50 with A549 amounted to 600 nM; in the test with MCF7 it was 600 nM; in the test on K562 [5], 1200 nM; in the test with K562 [1], 1.2 µM; in the test with P388, 400 nM; in test [6], 1100 nM. Also, the IC50 with COLO amounted to 2100 nM; in the test with BT-20, 1200 nM; in the test with NCI-H520, 900 nM; in the test on NCI-H460 it was 600 nM; in the test on WiDr it was 1400 nM. The “growth inhibition (GI)” value with K562 [2] amounted to 38%. Besides, in the test with K562 [3], the Activity came to 8.2%. The compound also had a S in the test with K562 [4] of 50%. In the test on K562 [7], this compound returned a G2/M of 12%. For the same compound, the c.v in the test with K562 [8] is 3.2.
